In article PMC8704707 (Pharmaceuticals, 2021):
≈ marks a conversion by molar mass, not a printed value. Where “and” joins values, the source holds several entries; their conditions need not be identical. Equal entries are not always repeated. Where two headings read alike, the source gives them in different places.

Legend:
[1] = tested on: four Gram-positive and four Gram-negative bacterial strains; test: Antibacterial microdilution broth method, whole panel; format: cell-based
HepG2 cells [2] = tested on: HepG2 cells
Protocol: (§1) Cytotoxicity of the tested compounds was measured using the standard hepatic cell line HepG2. The used CellTiter 96® assay is based on the reduction of tetrazolium dye (MTS) in living cells to formazan, which is then determined colorimetrically.

[3] = tested on: eight human pathogenic fungi; test: Antifungal microdilution broth method, whole panel; format: cell-based; conditions: not reported in Table 2, read-out: MIC, all fungal strains tested
in vitro [4] = conditions: human
HepG2 cells [5] = test: LDH release assay (CytoTox 96), membrane integrity; conditions: read-out: EC50 LDH release assay
[6] = biological target: AChE from electric eel (EeAChE) (Electrophorus electricus, UniProt O42275); test: biochemical; format: biochemical
AChE from electric eel (EeAChE), sequence (O42275 24-633): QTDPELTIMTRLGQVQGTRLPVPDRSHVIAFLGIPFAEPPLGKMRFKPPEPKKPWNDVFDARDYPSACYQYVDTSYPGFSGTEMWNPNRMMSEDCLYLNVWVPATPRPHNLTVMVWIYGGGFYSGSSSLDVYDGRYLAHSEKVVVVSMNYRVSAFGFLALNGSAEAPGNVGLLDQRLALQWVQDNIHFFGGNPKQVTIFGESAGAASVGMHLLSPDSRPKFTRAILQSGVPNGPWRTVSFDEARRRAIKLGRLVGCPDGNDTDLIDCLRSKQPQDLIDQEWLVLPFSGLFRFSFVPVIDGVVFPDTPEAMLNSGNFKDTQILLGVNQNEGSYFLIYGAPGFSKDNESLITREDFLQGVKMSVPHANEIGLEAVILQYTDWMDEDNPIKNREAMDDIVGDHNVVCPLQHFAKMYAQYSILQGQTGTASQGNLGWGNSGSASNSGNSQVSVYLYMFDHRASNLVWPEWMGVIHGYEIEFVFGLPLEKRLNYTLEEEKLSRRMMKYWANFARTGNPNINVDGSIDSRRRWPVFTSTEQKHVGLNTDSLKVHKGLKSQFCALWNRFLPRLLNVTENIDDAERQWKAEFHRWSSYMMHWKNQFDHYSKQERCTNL

in vitro [7] = conditions: human; for IC50 at 24 h: HepG2 cells
Protocol: as §1

[8] = biological target: BuChE from equine serum (EqBuChE) (Equus caballus, UniProt P81908); test: biochemical
BuChE from equine serum (EqBuChE), sequence (P81908 whole entry): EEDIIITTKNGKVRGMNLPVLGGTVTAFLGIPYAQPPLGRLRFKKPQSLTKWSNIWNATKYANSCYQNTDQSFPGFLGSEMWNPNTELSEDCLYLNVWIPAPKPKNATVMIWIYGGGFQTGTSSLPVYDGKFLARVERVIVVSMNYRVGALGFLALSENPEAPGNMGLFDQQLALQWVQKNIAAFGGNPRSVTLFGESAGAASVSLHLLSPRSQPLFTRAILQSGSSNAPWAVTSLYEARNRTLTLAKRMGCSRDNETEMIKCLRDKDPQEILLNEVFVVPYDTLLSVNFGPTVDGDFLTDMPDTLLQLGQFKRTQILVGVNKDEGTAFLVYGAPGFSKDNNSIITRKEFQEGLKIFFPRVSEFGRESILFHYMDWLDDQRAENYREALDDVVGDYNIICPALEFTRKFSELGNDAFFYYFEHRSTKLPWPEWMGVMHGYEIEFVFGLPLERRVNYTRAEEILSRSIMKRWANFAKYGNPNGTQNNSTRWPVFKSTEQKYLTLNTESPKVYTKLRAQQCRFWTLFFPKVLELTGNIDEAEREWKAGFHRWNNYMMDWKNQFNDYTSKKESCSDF

[9] = tested on: Escherichia coli ATCC 25922; test: Antibacterial microdilution broth method (EUCAST); format: cell-based
[10] = tested on: Staphylococcus aureus ATCC 29213; test: Antibacterial microdilution broth method (EUCAST); format: cell-based
[11] = tested on: Acinetobacter baumannii ATCC 19606; test: Antibacterial microdilution broth method (EUCAST); format: cell-based
[12] = tested on: Pseudomonas aeruginosa ATCC 27853; test: Antibacterial microdilution broth method (EUCAST); format: cell-based
[13] = tested on: methicillin-resistant Staphylococcus aureus ATCC 43300; test: Antibacterial microdilution broth method (EUCAST); format: cell-based; conditions: ATCC 43300 / MRSA
[14] = tested on: Enterococcus faecalis ATCC 29212; test: Antibacterial microdilution broth method (EUCAST); format: cell-based
[15] = tested on: Klebsiella pneumoniae ATCC 10031; conditions: for MIC KP 24 h: 24 h incubation; for MIC KP 48 h: 48 h incubation
[16] = tested on: Staphylococcus epidermidis ATCC 12228; test: Antibacterial microdilution broth method (EUCAST); format: cell-based
[17] = tested on: Candida albicans ATCC 24443; test: microbe, parasite or virus in culture; format: cell-based
Candida krusei ATCC 6258 = test: microbe, parasite or virus in culture; format: cell-based; conditions: Pichia kudriavzevii
[18] = tested on: Candida tropicalis ATCC 750; test: microbe, parasite or virus in culture; format: cell-based
[19] = tested on: Trichophyton interdigitale ATCC 9533; test: microbe, parasite or virus in culture; format: cell-based
[20] = tested on: Candida parapsilosis ATCC 22019; test: microbe, parasite or virus in culture; format: cell-based; conditions: Lodderomyces parapsilosis
[21] = read-out: MIC, all bacterial strains tested
[22] = read-out: IC50 cytotoxicity towards HepG2 cell line, CellTiter 96, 24 h incubation
[23] = mean ± SD, n = three independent experiments, ATCh 40 µM, read-out: IC50 AChE
[24] = mean ± SD, n = three independent experiments, BTCh 40 µM, read-out: IC50 BuChE
[25] = ATCC25922, 24 h, read-out: MIC EC 24 h
[26] = ATCC25922, 48 h, read-out: MIC EC 48 h
[27] = ATCC29213, 24 h, read-out: MIC SA 24 h
[28] = ATCC29213, 48 h, read-out: MIC SA 48 h
[29] = ATCC19606, 24 h, read-out: MIC ACI 24 h
[30] = ATCC19606, 48 h, read-out: MIC ACI 48 h
[31] = ATCC27853, 24 h, read-out: MIC PA 24 h
[32] = ATCC27853, 48 h, read-out: MIC PA 48 h
[33] = ATCC29212, 24 h, read-out: MIC EF 24 h
[34] = ATCC29212, 48 h, read-out: MIC EF 48 h
[35] = ATCC12228, 24 h, read-out: MIC SE 24 h
[36] = ATCC12228, 48 h, read-out: MIC SE 48 h
[37] = ATCC24443, 24 h, read-out: MIC CA 24 h
[38] = ATCC24443, 48 h, read-out: MIC CA 48 h
[39] = ATCC6258, 24 h, read-out: MIC CK 24 h
[40] = ATCC6258, 48 h, read-out: MIC CK 48 h
[41] = ATCC750, 24 h, read-out: MIC CT 24 h
[42] = ATCC750, 48 h, read-out: MIC CT 48 h
[43] = ATCC9533, 72 h, read-out: MIC TI 72 h
[44] = ATCC9533, 120 h, read-out: MIC TI 120 h
[45] = ATCC22019, 24 h, read-out: MIC CP 24 h
[46] = ATCC22019, 48 h, read-out: MIC CP 48 h

SMILES	EC50 at 24 h (in vitro [4]; HepG2 cells) [µM]	EC50 (HepG2 cells [5]; HepG2, 24 h incubation) [µM]	IC50 [6, 23] [µM]	IC50 at 24 h (in vitro [7]) [µM]	IC50 [8, 24]	MIC [9, 25] [µM]	MIC [9, 26] [µM]	MIC [10, 27] [µM]	MIC [10, 28] [µM]	MIC [11, 29] [µM]	MIC [11, 30] [µM]	Selectivity AChE/BuChE [6]	MIC [12, 31] [µM]	MIC [12, 32] [µM]	MIC ([13]; 24 h, read-out: MIC MRSA 24 h) [µM]	MIC ([13]; 48 h, read-out: MIC MRSA 48 h) [µM]	MIC [14, 33] [µM]	MIC [14, 34] [µM]	MIC KP 24 h [15] [µM]	MIC KP 48 h [15] [µM]	further results
[H]/N=C(\N)NN=Cc1cc(I)cc(I)c1O [Compound 1m, (E)-2-(2-Hydroxy-3,5-diiodobenzylidene)hydrazine-1-carboximidamide]	> 20	21.3	29 ± 2.49	> 29	< 20 µM and 3.57 µM	–	–	–	–	–	–	–	–	–	–	–	–	–	–	–	MIC [1, 21]: ≥ 500 µM; IC50 (HepG2 cells [2]; [22]): 56.5 µM; MIC [3]: ≥ 500 µM
[H]/N=C(\N)NN=Cc1ccc([N+](=O)[O-])o1 [Compound 1n, (E)-2-[(5-Nitrofuran-2-yl)methylene]hydrazine-1-carboximidamide]	–	3.55	–	–	–	62.5 (≈ 12.3 µg/mL)	125 (≈ 24.6 µg/mL)	62.5 (≈ 12.3 µg/mL)	125 (≈ 24.6 µg/mL)	250 (≈ 49.3 µg/mL)	500 (≈ 98.6 µg/mL)	0.12	500 (≈ 98.6 µg/mL)	500 (≈ 98.6 µg/mL)	125 (≈ 24.6 µg/mL)	125 (≈ 24.6 µg/mL)	500 (≈ 98.6 µg/mL)	500 (≈ 98.6 µg/mL)	250 (≈ 49.3 µg/mL)	250 (≈ 49.3 µg/mL)	IC50 (HepG2 cells [2]; human): 10.4 µM; MIC [3]: ≥ 500 µM; EC50 at 24 h (in vitro [4]): < 6 µM; IC50 [6]: 24.2 ± 0.75 µM; Type of inhibition of AChE [6]: mixed inhibition; IC50 (in vitro [7]): < 11 µM; IC50 ([8]; IC50 BuChE): 204 ± 13.2 µM; MIC [16, 35]: 62.5 µM (≈ 12.3 µg/mL); MIC [16, 36]: 125 µM (≈ 24.6 µg/mL)
NC(N)=NN=C1C(=O)Nc2ccccc21 [Compound 1p, 2-(2-Oxoindolin-3-ylidene)hydrazine-1-carboximidamide]	> 100	130	17.9 ± 0.9	> 500	< 20 µM and 17.5 µM	–	–	–	–	–	–	1.03	–	–	–	–	–	–	–	–	MIC [1, 21]: ≥ 500 µM; Cytotoxicity in HepG2 in words (HepG2 cells [2]; range of tested concentrations up to 500 µM): no significant cytotoxicity; MIC [3]: ≥ 500 µM; Type of inhibition of AChE [6]: mixed inhibition; Type of inhibition of BuChE [8]: mixed inhibition
CC(=O)Oc1c(I)cc(I)cc1/C=N/NC(=N)N [Compound 2a, (E)-2-[(2-Carbamimidoylhydrazineylidene)methyl]-4,6-diiodophenyl acetate]	> 20	30.4	20.5 ± 0.48	> 29	< 20 µM and 4.52 µM	250	250	125	125	500	500	4.54	> 500	> 500	125	125	250	250	250	250	MIC [17, 37]: 125 µM; MIC [17, 38]: 125 µM; IC50 (HepG2 cells [2]; [22]): 31.3 µM; Type of inhibition of AChE [6]: mixed inhibition; MIC (Candida krusei ATCC 6258; [39]): 500 µM; MIC (Candida krusei ATCC 6258; [40]): 500 µM; MIC [18, 41]: 500 µM; MIC [18, 42]: 500 µM; MIC [19, 43]: 62.5 µM; MIC [19, 44]: 125 µM; Type of inhibition of BuChE [8]: mixed inhibition; MIC [16, 35]: 250 µM; MIC [16, 36]: 250 µM; MIC [20, 45]: 500 µM; MIC [20, 46]: 500 µM
[H]/N=C(\N)NN=Cc1cc(I)cc(I)c1 [Compound 2c, (E)-2-(3,5-Diiodobenzylidene)hydrazine-1-carboximidamide]	< 6	5.44	29 ± 1.19	< 11	85.5 ± 1.46 µM	62.5 (≈ 25.9 µg/mL)	62.5 (≈ 25.9 µg/mL)	15.6 (≈ 6.47 µg/mL)	15.6 (≈ 6.47 µg/mL)	250 (≈ 103 µg/mL)	250 (≈ 103 µg/mL)	0.34	250 (≈ 103 µg/mL)	250 (≈ 103 µg/mL)	15.6 (≈ 6.47 µg/mL)	15.6 (≈ 6.47 µg/mL)	31.2 (≈ 12.9 µg/mL)	31.2 (≈ 12.9 µg/mL)	62.5 (≈ 25.9 µg/mL)	62.5 (≈ 25.9 µg/mL)	MIC ([1]; read-out: MIC against staphylococci): 31.2 to 125 µM (≈ 12.9 to 51.7 µg/mL); IC50 (HepG2 cells [2]; [22]): 9.84 µM; MIC [3]: ≥ 500 µM; MIC [16, 35]: 7.8 µM (≈ 3.23 µg/mL); MIC [16, 36]: 7.8 µM (≈ 3.23 µg/mL)
Cl.N=C(NN)N/N=C/c1cc(I)cc(I)c1O [Compound 2e, (E)-Hydrazineyl[2-(2-hydroxy-3,5-diiodobenzylidene)hydrazineyl]methaniminium chloride]	> 100	–	–	> 100	–	> 125	> 125	62.5	125	> 125	> 125	–	> 125	> 125	125	125	> 125	> 125	>125	>125	MIC [17, 37]: 125 µM; MIC [17, 38]: 125 µM; IC50 (HepG2 cells [2]; read-out: IC50 cytotoxicity towards HepG2 cell line): 120 µM; EC50 (HepG2 cells [5]): 132 µM; IC50 [6]: 28.2 ± 0.98 µM; MIC (Candida krusei ATCC 6258; [39]): 125 µM; MIC (Candida krusei ATCC 6258; [40]): 125 µM; MIC [18, 41]: 125 µM; MIC [18, 42]: 125 µM; MIC [19, 43]: 125 µM; MIC [19, 44]: 125 µM; Type of inhibition of BuChE [8]: mixed inhibition; IC50 ([8]; read-out: IC50 BuChE): 1.69 ± 0.17 µM; MIC [16, 35]: 31.2 µM; MIC [16, 36]: 31.2 µM; MIC [20, 45]: 125 µM; MIC [20, 46]: 125 µM
NC(=S)N/N=C/c1ccc([N+](=O)[O-])o1 [Compound 3e, (E)-2-[(5-Nitrofuran-2-yl)methylene]hydrazine-1-carbothioamide]	< 6	5.25	33.16 ± 0.06	> 29	> 500 µM	125 (≈ 26.8 µg/mL)	250 (≈ 53.6 µg/mL)	62.5 (≈ 13.4 µg/mL)	62.5 (≈ 13.4 µg/mL)	> 500	> 500	<0.07	> 500	> 500	62.5 (≈ 13.4 µg/mL)	62.5 (≈ 13.4 µg/mL)	125 (≈ 26.8 µg/mL)	125 (≈ 26.8 µg/mL)	62.5 (≈ 13.4 µg/mL)	62.5 (≈ 13.4 µg/mL)	IC50 (HepG2 cells [2]; [22]): 29.8 µM; MIC [16, 35]: 31.2 µM (≈ 6.69 µg/mL); MIC [16, 36]: 62.5 µM (≈ 13.4 µg/mL)
